Series [1] has as its system Mycobacterium kansasii. Nature of the series: Antimycobacterial activity against Mycobacterium kansasii 6509/96 after 21 days by micromethod. It counts as functional. To be noted: 6509/96, 504 h.
Series [2] deals with Mycobacterium tuberculosis. As to the kind of experiment: microbe, parasite or virus in culture. To be noted: 331/88, 336 h.
Description: Antimycobacterial activity against Mycobacterium tuberculosis 331/88 after 14 days by micromethod
In series [3] the test system is Mycobacterium tuberculosis. As to the kind of experiment: microbe, parasite or virus in culture. To be noted: 331/88, 504 h.
Description: Antimycobacterial activity against Mycobacterium tuberculosis 331/88 after 21 days by micromethod
Series [4] is described as follows: Partition coefficient, log P of the compound. It counts as physicochemical. To be noted: octanol/water.
Series [5] concerns Mycobacterium avium. As to the kind of experiment: Antimycobacterial activity against Mycobacterium avium 330/88 after 14 days by micromethod. It counts as functional. Conditions: 330/88, 336 h.
Series [6] concerns Mycobacterium kansasii. Nature of the series: Antimycobacterial activity against Mycobacterium kansasii 6509/96 after 14 days by micromethod. It counts as functional. Conditions: 6509/96, 336 h.
Series [7] has as its system Mycobacterium kansasii. Nature of the series: Antimycobacterial activity against Mycobacterium kansasii 235/80 after 21 days by micromethod. It counts as functional. Conditions: 235/80, 504 h.
Series [8] deals with Mycobacterium avium. Nature of the series: Antimycobacterial activity against Mycobacterium avium 330/88 after 21 days by micromethod. Conditions: 330/88, 504 h. It counts as functional.
Series [9] has as its system Mycobacterium kansasii. Nature of the series: Antimycobacterial activity against Mycobacterium kansasii 235/80 after 14 days by micromethod. It counts as functional. To be noted: 235/80, 336 h.
Series [10] in a line: Toxicity against human HCT8 cells after 72 hrs by XTT assay. It counts as cell-based, HCT-8. For orientation: Tetrazolium assays rely on reduction of a dye to a coloured formazan, in cell work by metabolically active cells.

≈ marks a conversion by molar mass, not a printed value.

Usually logP stands for the decadic logarithm of the partition coefficient of the neutral form, usually between octanol and water. Consider `CCCCCCCCCCCNC(=O)Oc1ccc(Cl)cc1C(=O)Nc1cccc(Cl)c1`, for which the MIC in series [1] worked out at 8 µM (≈ 3.84 µg/mL); in [2], 2 µM (≈ 0.959 µg/mL); in [3] it was 2 µM (≈ 0.959 µg/mL); in series [5], 8 µM (≈ 3.84 µg/mL); in series [6] it was 8 µM (≈ 3.84 µg/mL); in series [7], 8 µM (≈ 3.84 µg/mL). Moreover, the MIC in series [8] and in series [9] was 8 µM (≈ 3.84 µg/mL) each time. The same compound displayed a logP in [4] of 7.61.
Turning to `CCCCCCCCCCNC(=O)Oc1ccc(Cl)cc1C(=O)Nc1ccc(Cl)c(Cl)c1`, the MIC in series [1] amounted to 4 µM (≈ 2 µg/mL); in series [2], 2 µM (≈ 1 µg/mL); in series [3] it was 2 µM (≈ 1 µg/mL); in [5], 8 µM (≈ 4 µg/mL); in [6], 2 µM (≈ 1 µg/mL); in series [7] it was 4 µM (≈ 2 µg/mL). Also, the results for the MIC in [8] and in series [9] were 8 µM (≈ 4 µg/mL) and 4 µM (≈ 2 µg/mL), respectively. In series [4], this compound returned a logP of 7.77.
With `CCCCCCNC(=O)Oc1ccc(Cl)cc1C(=O)Nc1ccc(Cl)cc1`, the MIC was 4 µM (≈ 1.64 µg/mL) in series [1]; 1 µM (≈ 0.409 µg/mL) in series [2]; 2 µM (≈ 0.819 µg/mL) in [3]; 4 µM (≈ 1.64 µg/mL) in [5]; 2 µM (≈ 0.819 µg/mL) in series [6]; 4 µM (≈ 1.64 µg/mL) in series [7]. Further, the MIC in [8] was found to be 8 µM (≈ 3.27 µg/mL); in series [9], 4 µM (≈ 1.64 µg/mL). This compound also came in with a logP in [4] of 5.53.
For orientation: EC50 means the concentration giving half of the maximal effect. Regarding `CCCCCCNC(=O)Oc1ccc(Cl)cc1C(=O)Nc1cccc(Cl)c1`, the MIC in series [1] stood at 4 µM (≈ 1.64 µg/mL); in series [2], 0.5 µM (≈ 0.205 µg/mL); in series [3], 1 µM (≈ 0.409 µg/mL); in series [5], 8 µM (≈ 3.27 µg/mL); in series [6], 4 µM (≈ 1.64 µg/mL); in [7], 4 µM (≈ 1.64 µg/mL). Further, the results for the MIC in series [8] and in series [9] were 8 µM (≈ 3.27 µg/mL) and 4 µM (≈ 1.64 µg/mL), respectively. In [4], this compound came in with a logP of 5.53. The same compound displayed an EC50 at 72 h in series [10] of 14.9 µM.
With `CCNC(=O)Oc1ccc(Cl)cc1C(=O)Nc1cccc(Cl)c1`, the MIC in series [1] is 8 µM (≈ 2.83 µg/mL); in series [2] it was 2 µM (≈ 0.706 µg/mL); in series [3] it was 2 µM (≈ 0.706 µg/mL); in series [5], 8 µM (≈ 2.83 µg/mL); in [6], 8 µM (≈ 2.83 µg/mL); in series [7] it was 8 µM (≈ 2.83 µg/mL). Further, the MIC in series [8] and in series [9] was 8 µM (≈ 2.83 µg/mL) throughout. For the same compound, the logP in series [4] is 3.79.
Take `CCNC(=O)Oc1ccc(Cl)cc1C(=O)Nc1ccc(Cl)c(Cl)c1`: the MIC in [1] was 4 µM (≈ 1.55 µg/mL); in series [2], 0.5 µM (≈ 0.194 µg/mL); in [3], 1 µM (≈ 0.388 µg/mL); in [5] it was 16 µM (≈ 6.2 µg/mL); in series [6], 2 µM (≈ 0.775 µg/mL); in series [7], 4 µM (≈ 1.55 µg/mL). Moreover, the MIC in series [8] came out at 32 µM (≈ 12.4 µg/mL); in series [9], 2 µM (≈ 0.775 µg/mL). Besides, the logP in series [4] came to 4.35. Moreover, the EC50 at 72 h in [10] worked out at 31 µM.
Regarding `CCCCCCCNC(=O)Oc1ccc(Cl)cc1C(=O)Nc1ccc(Cl)cc1`, the MIC was 4 µM (≈ 1.69 µg/mL) in [1]; 2 µM (≈ 0.847 µg/mL) in [2]; 2 µM (≈ 0.847 µg/mL) in [3]; 8 µM (≈ 3.39 µg/mL) in [5]; 4 µM (≈ 1.69 µg/mL) in series [6]; 8 µM (≈ 3.39 µg/mL) in series [7]. Also, the MIC in [8] and in [9] was 8 µM (≈ 3.39 µg/mL) in each case. Moreover, in [4], the logP was determined as 5.94.
Regarding `CCCCCCCCCNC(=O)Oc1ccc(Cl)cc1C(=O)Nc1ccc(Cl)c(Cl)c1`, the MIC came to 4 µM (≈ 1.94 µg/mL) in series [1]; 2 µM (≈ 0.972 µg/mL) in series [2]; 2 µM (≈ 0.972 µg/mL) in series [3]; 8 µM (≈ 3.89 µg/mL) in series [5]; 4 µM (≈ 1.94 µg/mL) in series [6]; 8 µM (≈ 3.89 µg/mL) in series [7]. Moreover, the MIC in series [8] and in series [9] was 8 µM (≈ 3.89 µg/mL) throughout. Further, the logP in series [4] came out at 7.34.
For `CCCCCCCCNC(=O)Oc1ccc(Cl)cc1C(=O)Nc1ccc(Cl)cc1`, the MIC was found to be 4 µM (≈ 1.75 µg/mL) in series [1]; 2 µM (≈ 0.875 µg/mL) in [2]; 2 µM (≈ 0.875 µg/mL) in series [3]; 8 µM (≈ 3.5 µg/mL) in series [5]; 4 µM (≈ 1.75 µg/mL) in [6]; 8 µM (≈ 3.5 µg/mL) in series [7]. For the same compound, the MIC in [8] and in series [9] was 8 µM (≈ 3.5 µg/mL) each time. Moreover, the logP in series [4] amounted to 6.36.
With `CCCCCCCCCNC(=O)Oc1ccc(Cl)cc1C(=O)Nc1ccc(Cl)cc1`, the MIC worked out at 4 µM (≈ 1.81 µg/mL) in [1]; 2 µM (≈ 0.903 µg/mL) in series [2]; 2 µM (≈ 0.903 µg/mL) in series [3]; 8 µM (≈ 3.61 µg/mL) in [5]; 4 µM (≈ 1.81 µg/mL) in series [6]; 4 µM (≈ 1.81 µg/mL) in [7]. In addition, the MIC in [8] was 16 µM (≈ 7.22 µg/mL); in series [9], 4 µM (≈ 1.81 µg/mL). Moreover, in [4], the logP worked out at 6.78.
As to `CCCCCNC(=O)Oc1ccc(Cl)cc1C(=O)Nc1ccc(Cl)c(Cl)c1`, the MIC in series [1] came to 4 µM (≈ 1.72 µg/mL); in [2], 0.5 µM (≈ 0.215 µg/mL); in [3], 0.5 µM (≈ 0.215 µg/mL); in [5], 8 µM (≈ 3.44 µg/mL); in series [6], 2 µM (≈ 0.859 µg/mL); in series [7], 2 µM (≈ 0.859 µg/mL). Moreover, the MIC in series [8] is 16 µM (≈ 6.88 µg/mL); in [9] it was 2 µM (≈ 0.859 µg/mL). Moreover, in [4], the logP was determined as 5.67. For the same compound, a half-maximal effect in [10] (EC50 at 72 h) was put at 40 µM.
